From patent US5006512A, “Therapeutic usages of inhibitors for a potassium efflux channel” (priority 1988, dated 1991)
“Also recorded” adds a separate entry of the source.

How the values were obtained:
brain focal ischemia = assay: Brain focal ischemia, motor performance test; format: in vivo, rat; details: 0.14 mg/kg
Experimental: (a) Surgical procedures: Adults male Sprague-Dwaley rats weighing 250-300 g were used in these studies. Anesthesia was induced and maintained with halothane (1.0-2.5%) via closely fitted facial mask. Bilateral common carotid arteries (CCA) were exposed gently and the right CCA was ligated in two places by 4-0 silk suture. To expose the right middle cerebral artery (MCA), the temporal muscles were cut and retracted, then, a small temporal craniotomy (2=2 mm) was performed with a microdrill. Under a microscope, the dura matter was opened with a 26 guage needle, and the MCA was ligated by 10-0 suture with a square knot. Immediately, the left CCA was occluded by a microaneurysmal clip. After the operation, the animal was returned to the cage. One hour later, the left CCA clip was released under awake condition. […]
(c) Motor performance test: The disturbance of motor function was evaluated by the total score obtained from inclined plate test, balance beam test and prehensile test. These motor performance tests were dsesigned to quantify the motor weakness in the global ischemia rats. […] The animal was placed at the highest position of the plate and the time which it could stay on the plate was measured untill 30 sec. […] The time spent on the rod was recorded untill 30 sec. […] The time spent in hanging on the rope was measured untill 30 sec. […]

sickle red blood cells = assay: Formation of irreversibly sickled cells by sickling-unsickling cycling in vitro; format: cell-based
Description: The inventor previously developed a method to produce irreversibly sickled cells (ISC, which have irreversibly denatured membranes) by exposing sickle red blood cells to a repeated sickling-unsickling cycling in vitro. He used this system to determine the efficacy of a drug in protecting cell membranes (Ohnishi, Br. J. Haematol. 55:665-671, 1983). […] These heavy cells were collected, the amount measured, and the percentage of production calculated (Table 3). As shown in the Table, MR-103 inhibited the formation of irreversibly denatured cells at an extremely low concentration. Even at 20 nM, it inhibited the production of denatured cell almost 50%. […] The subfragment comound MR-117 was also found to have a remarkable effect (Table 4). At a concentration of 60 nM, it inhibited the formation of denatured cells by more than 50%.

mice = assay: Acute toxicity (LD50) in mice, i.p.; format: in vivo
brain ischemia = assay: Brain focal ischemia, water content of hemisphere (brain edema); format: in vivo, rat; details: 0.14 mg/kg i.v. thirty minutes prior to ischemic insult; 1 hour focal ischemia
Experimental: (a) Surgical procedures: Adults male Sprague-Dwaley rats weighing 250-300 g were used in these studies. Anesthesia was induced and maintained with halothane (1.0-2.5%) via closely fitted facial mask. Bilateral common carotid arteries (CCA) were exposed gently and the right CCA was ligated in two places by 4-0 silk suture. To expose the right middle cerebral artery (MCA), the temporal muscles were cut and retracted, then, a small temporal craniotomy (2=2 mm) was performed with a microdrill. Under a microscope, the dura matter was opened with a 26 guage needle, and the MCA was ligated by 10-0 suture with a square knot. Immediately, the left CCA was occluded by a microaneurysmal clip. After the operation, the animal was returned to the cage. One hour later, the left CCA clip was released under awake condition. The sham-operated control was produced in a similar procedure, except for the ligation and clipping of vessels. The operation was usually finished within 30 min.
(b) Water content and ionic analysis: After fixed time interval (1, 3, and 7 days), the animal was sacrificed and the excised cerebral hemispheres were placed in preweighed crucible and measured an wet weight (W.W) with a chemical balance (Mettler, AE 100). […] The water content (% wet weight) was calculated by (W.W -D.W)/W.W. […]

Question: Which results are given for `CSCC[C@@H]1NC(=O)[C@H](CS)NC(=O)[C@H](CCCCN)NC(=O)CNC(=O)[C@H](CCCNC(=N)N)NC(=O)[C@H](CO)NC(=O)[C@H]([C@@H](C)O)NC(=O)[C@H](CC(N)=O)NC(=O)[C@H](Cc2c[nH]cn2)NC(=O)[C@H](CC(C)C)NC(=O)[C@H](CCCNC(=N)N)NC(=O)[C@H](CCC(N)=O)NC(=O)[C@@H]2CSSC[C@@H](C(=O)N[C@@H](Cc3ccc(O)cc3)C(=O)N[C@@H](CO)C(=O)O)NC(=O)[C@H](CCCNC(=N)N)NC(=O)[C@H](CSSC[C@H](N)C(=O)N[C@@H](Cc3c[nH]c4ccccc34)C(=O)N[C@@H](CO)C(=O)N[C@@H](C(C)C)C(=O)N2)NC(=O)[C@H](CCCCN)NC(=O)[C@H](CCCCN)NC(=O)[C@H](CC(N)=O)NC1=O` [MR-117]?
Answer: effect on motor performance after brain focal ischemia (in words) (brain focal ischemia; 1 hour focal ischemia, 3 and 7 days): remarkable recovery effect; Motor Score (brain focal ischemia; 3 days after ischemia, scale 0-12, no drug 6.93, sham 11.13): 9.50 ± 0.56; Irreversibly sickling cells (sickle red blood cells; 60 nM drug during cycling): 14.8 percentages; Reversibly sickling cells (sickle red blood cells; 60 nM drug during cycling): 85.2 percentages; Irreversibly sickling cells (sickle red blood cells; 100 nM drug during cycling): 10.3 percentages; Reversibly sickling cells (sickle red blood cells; 100 nM drug during cycling): 89.7 percentages; Irreversibly sickling cells (sickle red blood cells; 200 nM drug during cycling): 0 percentages; Reversibly sickling cells (sickle red blood cells; 200 nM drug during cycling): 100 percentages; Acute toxicity (LD50) (mice): 0.92 mg/kg; increase of water content of ischemia-exposed hemisphere (brain ischemia): inhibited the increase of water content; also recorded: much reduced
